Results from patent US6956040B2, “Oxazolidinone piperazinyl derivatives as potential antimicrobials” (Ranbaxy Laboratories Limited, priority 2001, dated 2005).
Values after ≈ are worked out from the molar mass of the structure shown.

How the values were obtained:
Experiment in all cases: MIC, agar incorporation method
MRSA 33 = assay type: cell-based, Staphylococcus aureus; conditions: MRSA 33; agar incorporation
Experimental: (§1) The compounds of the invention display antibacterial activity when tested by the agar incorporation method. The following minimum inhibitory concentrations (μg/ml) were obtained for representative compounds of the invention which are given below in the following tables.
(§2) Briefly, the compounds were dissolved in DMSO and doubling dilution of the compounds were incorporated into Meuller Hilton agar before solidification. Inoculum was prepared by suspending 4 to 5 colonies into 5 ml of normal saline solution and adjusting the turbidity to 0.5 Macfarland turbidity standard tables (1.5×10^8 CFU/ml), after appropriate dilutions, 10^4 CFU/spot was transfered into the surface of dried plate and incubated for 18 hours (24 hours for MRSN studies). The concentration showing no growth of the inoculated culture was recorded as the MIC. Appropriate ATCC standard strains were simultaneously tested and result recorded only when the MIC's against standard antibiotics were within the acceptable range.

S. pyogenes 19615 = assay type: cell-based, Streptococcus pyogenes; conditions: S. pyogenes 19615; agar incorporation
Source text: as §1
(§3) • 1) S.aureus ATCC 25923—Staphylococus aureus ATCC 25923 • 2) MRSA 15187—Methicillin Resistant Staphylococcus aureus • 3) Ent. faecalis ATCC 29212—Enterococcus faecalis ATCC 29212 • 4) Ent. faecium 6A—Enterococcus faecium 6A Van®, Cipro® • 5) Strep. pne. ATCC 6303—Streptococcus pneumoniae ATCC 6303 • 6) Strep. pyog. ATCC 19615—Streptococcus pyogenes • 7) S. epidermidis—Staphylococcus epidermidis ATCC 12228
as §2

E. faecalis 29212 = assay type: cell-based, Enterococcus faecalis; conditions: E. faecalis 29212; agar incorporation
Source text: as §1, §3, §2

VRE 6A = assay type: cell-based, Enterococcus faecium; conditions: VRE 6A; agar incorporation
Source text: as §1, §3, §2

S. pneum 6303 = assay type: cell-based, Streptococcus pneumoniae; conditions: S. pneum 6303; agar incorporation
Source text: as §1, §3, §2

S. aureus 25923 = assay type: cell-based, Staphylococcus aureus; conditions: S. aureus 25923; agar incorporation
Source text: as §1, §3, §2

MRSA 15187 = assay type: cell-based, Staphylococcus aureus; conditions: MRSA 15187; agar incorporation
Source text: as §1, §3, §2

S. pneum AB 34 = assay type: cell-based, Streptococcus pneumoniae; conditions: S. pneum AB 34; agar incorporation
Experimental: as §1, §2

MRSA 562 = assay type: cell-based, Staphylococcus aureus; conditions: MRSA 562; agar incorporation; Table 1
Experimental: as §1, §2

Row | Compound | MIC (MRSA 33) [µg/mL] | MIC (S. pyogenes 19615) [µg/mL] | MIC (E. faecalis 29212) [µg/mL] | MIC (VRE 6A) [µg/mL] | MIC (S. pneum 6303) [µg/mL] | MIC (S. aureus 25923) [µg/mL] | MIC (MRSA 15187) [µg/mL] | MIC (S. pneum AB 34) [µg/mL] | MIC (MRSA 562) [µg/mL]
1 | CC(=O)NC[C@H]1CN(c2ccc(N3CCN(Cc4ccc(Cl)s4)CC3)c(F)c2)C(=O)O1 [Compound No. 10, (S)-N[[3-[3-Fluoro-4-[N-1[4-{2-thienyl(5-chloro)methyl}]-piperazinyl]phenyl]2-oxo-5-oxazolidinyl]methyl]acetamide] | 4 (≈ 8.57 µM) | 1 (≈ 2.14 µM) | 8 (≈ 17.1 µM) | 4 (≈ 8.57 µM) | 4 (≈ 8.57 µM) | 8 (≈ 17.1 µM) | 4 (≈ 8.57 µM) | 8 (≈ 17.1 µM) | 
2 | CC(=O)NC[C@H]1CN(c2ccc(N3CCN(Cc4ccc([N+](=O)[O-])o4)CC3)c(F)c2)C(=O)O1.O=C(O)CC(O)(CC(=O)O)C(=O)O [Compound No. 17] | 2 | 1 | 2 | 4 | 2 | 2 | 2 | 1 | 
3 | CC(=O)NC[C@H]1CN(c2ccc(N3CCN(Cc4ccc([N+](=O)[O-])s4)CC3)c(F)c2)C(=O)O1 [Compound No. 23, (S)-N[[3-[3-Fluoro-4-[N-1[4-{2-thienyl(5-nitro)methyl}]piperazinyl]phenyl]2-oxo-5-oxazolidinyl]methyl]acetamide] | 8 (≈ 16.8 µM) | 1 (≈ 2.09 µM) | 8 (≈ 16.8 µM) | 8 (≈ 16.8 µM) | 8 (≈ 16.8 µM) | 8 (≈ 16.8 µM) | 8 (≈ 16.8 µM) | 8 (≈ 16.8 µM) | 
4 | CC(=O)NC[C@H]1CN(c2ccc(N3CCN(Cc4ccc(C=NO)o4)CC3)c(F)c2)C(=O)O1 [Compound No. 60, (S)-N-[[3-[3-Fluoro-4-[N-1-[4-(2-furyl-(5-aldoxime)methyl}]piperazinyl]phenyl]-2-oxo-5-oxazolidinyl]methyl]acetamide] | 2 (≈ 4.35 µM) | 4 (≈ 8.71 µM) | 8 (≈ 17.4 µM) | 16 (≈ 34.8 µM) | 8 (≈ 17.4 µM) | 2 (≈ 4.35 µM) | 2 (≈ 4.35 µM) | 8 (≈ 17.4 µM) | 
5 | COC(=O)Cc1ccc(NC(=O)ON=Cc2ccc(CN3CCN(c4ccc(N5C[C@H](CNC(C)=O)OC5=O)cc4F)CC3)o2)cc1 [Compound No. 61] | 8 (≈ 12.3 µM) | 8 (≈ 12.3 µM) | 8 (≈ 12.3 µM) | 8 (≈ 12.3 µM) | 8 (≈ 12.3 µM) | 8 (≈ 12.3 µM) | 8 (≈ 12.3 µM) | 8 (≈ 12.3 µM) | 

Continued, values first:

Row | MIC (MRSA 33) [µg/mL] | MIC (S. pyogenes 19615) [µg/mL] | MIC (E. faecalis 29212) [µg/mL] | MIC (VRE 6A) [µg/mL] | MIC (S. pneum 6303) [µg/mL] | MIC (S. aureus 25923) [µg/mL] | MIC (MRSA 15187) [µg/mL] | MIC (S. pneum AB 34) [µg/mL] | MIC (MRSA 562) [µg/mL] | Compound
6 | 4 (≈ 9.29 µM) | 1 (≈ 2.32 µM) | 2 (≈ 4.65 µM) | 2 (≈ 4.65 µM) | 2 (≈ 4.65 µM) | 2 (≈ 4.65 µM) | 2 (≈ 4.65 µM) | 1 (≈ 2.32 µM) |  | CC(=O)NC[C@H]1CN(c2ccc(N3CCN(C(=O)c4ccco4)CC3)c(F)c2)C(=O)O1 [Compound No. 01, (S)-N-[[3-[3-Fluoro-4-[N-1-[4-(2-furoyl)piperazinyl]]-phenyl]-2-oxo-5-oxazolidinyl]methyl]acetamide]
7 | 2 (≈ 4.5 µM) | 8 (≈ 18 µM) | 8 (≈ 18 µM) | 8 (≈ 18 µM) | 4 (≈ 9 µM) | 1 (≈ 2.25 µM) | 2 (≈ 4.5 µM) | 8 (≈ 18 µM) | 1 (≈ 2.25 µM) | CC(=O)NC[C@H]1CN(c2ccc(N3CCN(Cc4ccc(C=O)o4)CC3)c(F)c2)C(=O)O1 [Compound No. 02, (S)-N-[[3-[3-Fluoro-4-[N-1[4-{2-furyl(5-formyl)methyl}]piperazinyl]phenyl]-2-oxo-5-oxazolidinyl]methyl]acetamide]
8 | 4 (≈ 8.35 µM) | 4 (≈ 8.35 µM) | 8 (≈ 16.7 µM) | 8 (≈ 16.7 µM) | 4 (≈ 8.35 µM) | 16 (≈ 33.4 µM) | 4 (≈ 8.35 µM) | 4 (≈ 8.35 µM) |  | CC(=O)NC[C@H]1CN(c2ccc(N3CCN(C(=O)c4ccc(CCl)o4)CC3)c(F)c2)C(=O)O1 [Compound No. 05, (S)-N-[[3-Fluoro-4-[N-1[4-(5-chloromethyl-2-furoyl)piperazinyl]phenyl]-2-oxo-5-oxazolidinyl]methyl]acetamide]
9 | 8 (≈ 17.5 µM) | 1 (≈ 2.19 µM) | 8 (≈ 17.5 µM) | 8 (≈ 17.5 µM) | 4 (≈ 8.76 µM) | 8 (≈ 17.5 µM) | 8 (≈ 17.5 µM) | 4 (≈ 8.76 µM) |  | CC(=O)NC[C@H]1CN(c2ccc(N3CC4C(C3)C4N(C)C(=O)c3ccoc3)c(F)c2)C(=O)O1 (stereo partly drawn) [Compound No. 32, (S)-N-[[3-[3-Fluoro[4-[3-(1α, 5α, 6α)-6-[N-(3-furoyl)-N-methyl]amino]-3-azabicyclo-[3.1.0]hexane]phenyl]-2-oxo-5-oxazolidinyl]methyl]acetamide]
10 | 4 (≈ 7.47 µM) | 0.5 (≈ 0.934 µM) | 4 (≈ 7.47 µM) | 4 (≈ 7.47 µM) | 8 (≈ 14.9 µM) | 4 (≈ 7.47 µM) | 4 (≈ 7.47 µM) | 4 (≈ 7.47 µM) |  | CC(=O)NC[C@H]1CN(c2ccc(N3C[C@@H]4[C@H](C3)[C@H]4N(C)C(=O)c3ccc(Br)o3)c(F)c2)C(=O)O1 [Compound No. 33, (S)-N-[[3-[3-Fluoro[4-[3-(1α,5α,6α)-6-[N-(5-bromo-2-furoyl)-N-methyl]amino]-3-azabicyclo-[3.1.0]hexane]phenyl]-2-oxo-5-oxazolidinyl]methyl]acetamide]
11 | 1 (≈ 1.98 µM) | 0.5 (≈ 0.989 µM) | 4 (≈ 7.91 µM) | 4 (≈ 7.91 µM) |  | 2 (≈ 3.96 µM) | 1 (≈ 1.98 µM) | 2 (≈ 3.96 µM) | 1 (≈ 1.98 µM) | CC(=O)NC[C@H]1CN(c2ccc(N3CCC(N(C)Cc4ccc([N+](=O)[O-])s4)CC3)c(F)c2)C(=O)O1 [Compound No. 51, (S)-N-[[3-[4-[4-(N-methyl-N-2-thienyl(5-nitro)methyl)-aminopiperidine-1-yl]-3-fluorophenyl]-2oxo-oxazolidin-5-yl]methyl]acetamide]
12 | 4 (≈ 8.5 µM) | 0.25 (≈ 0.531 µM) | 8 (≈ 17 µM) | 8 (≈ 17 µM) | 4 (≈ 8.5 µM) | 8 (≈ 17 µM) | 4 (≈ 8.5 µM) | 4 (≈ 8.5 µM) |  | CC(=O)NC[C@H]1CN(c2ccc(N3CC4C(C3)C4N(C)Cc3ccc(C=O)o3)c(F)c2)C(=O)O1 (stereo partly drawn) [Compound No. 72, (S)-N-[[3-[3-Fluoro[4-[3-(1α,5α,6α)-6-[N-(5-formyl-2-furylmethyl)-N-methyl]amino]-3-azabicyclo-[3.1.0]hexane]phenyl]-2-oxo-5-oxazolidinyl]methyl]acetamide]
13 | 8 (≈ 16.9 µM) | 1 (≈ 2.12 µM) | 8 (≈ 16.9 µM) | 8 (≈ 16.9 µM) | 4 (≈ 8.46 µM) | 8 (≈ 16.9 µM) | 8 (≈ 16.9 µM) | 8 (≈ 16.9 µM) |  | CC(=O)NC[C@H]1CN(c2ccc(N3CC4C(C3)C4N(C)C(=O)c3ccsc3)c(F)c2)C(=O)O1 (stereo partly drawn) [Compound No. 73, (S)-N-[[3-[3-Fluoro[4-[3-(1α,5α,6α)-6-[N-(3-thienoyl)-N-methyl]amino]-3-azabicyclo-[3.1.0]hexane]phenyl]-2-oxo-5-oxazolidinyl]methyl]acetamide]
